The source of these data is patent US10208046B2, “Nitrogen-containing heterocyclic compound” (Takeda Pharmaceutical Company Limited, priority 2014, dated 2019).

This test addresses T1, human M1 receptor (hCHRM1) (Homo sapiens, UniProt P11229).
T1 construct: expressed in transfected cells
T1 sequence (P11229 1-460): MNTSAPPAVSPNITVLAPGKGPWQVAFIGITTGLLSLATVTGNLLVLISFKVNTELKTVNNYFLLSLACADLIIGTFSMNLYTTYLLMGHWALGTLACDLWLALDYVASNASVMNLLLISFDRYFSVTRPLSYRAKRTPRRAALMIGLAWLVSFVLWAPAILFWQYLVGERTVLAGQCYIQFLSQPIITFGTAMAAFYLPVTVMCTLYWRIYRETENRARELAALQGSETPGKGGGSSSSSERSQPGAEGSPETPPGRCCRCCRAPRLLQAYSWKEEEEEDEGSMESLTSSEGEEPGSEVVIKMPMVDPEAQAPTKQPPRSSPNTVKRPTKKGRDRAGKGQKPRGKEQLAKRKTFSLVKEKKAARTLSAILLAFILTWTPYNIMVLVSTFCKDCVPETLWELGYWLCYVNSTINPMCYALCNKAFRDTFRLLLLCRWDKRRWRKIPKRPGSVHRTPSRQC
Description: Measurement of M1 receptor positive allosteric modulator (M1PAM) activity, calcium fluorescence in CHO-K1 cells.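 For EC50: potency reported as IP value in nM.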 The format is cell-based. The conditions noted are these: for activity (%) at 10 μM: 10 μM test compound with acetylcholine at EC20, 100% = acetylcholine 1 μM, 0% = DMSO; for EC50: inflection point in the concentration-dependent curve, acetylcholine at EC20 (final 0.6-0.8 nM), CHO-K1 cells expressing human M1, Fluo-4, FLIPRtetra, read-out: IP value. How it is done: Measurement of M1 Receptor Positive Allosteric Modulator (M1PAM) Activity
The activity of a test compound in the presence of acetylcholine at EC20 concentration (final concentration 0.6-0.8 nM), which affords an action corresponding to about 20% of the maximum activity, was measured as PAM activity. The method is as follows. CHO-K1 cells stably expressing a human M1 receptor (hCHRM1) were plated on a 384-well black clear bottom plate (BD Falcon) at 5,000 cells/well, and cultured in an incubator at 37° C., 5% CO2 for 1 day. The medium in the cell plate was removed, and assay buffer A containing calcium indicator (Recording medium (DOJINDO LABORATORIES), 0.1% BSA (Wako Pure Chemical Industries, Ltd.), 2.5 μg/mL Fluo-4 AM (DOJINDO LABORATORIES), 0.08% Pluronic F127 (DOJINDO LABORATORIES), 1.25 mM probenecid (DOJINDO LABORATORIES)) was added at 30 μL/well. The cells were left standing in the incubator at 37° C., 5% CO2 for 30 min, and further left standing at room temperature for 30 min. A test compound prepared by diluting with assay buffer B (HBSS (Invitrogen), 20 mM HEPES (Invitrogen), 0.1% BSA) containing 2.4-3.2 nM acetylcholine was added at 10 μL/well, and the fluorescence was measured by FLIPRtetra (Molecular Devices) for 1 min every 1 second. With the definition that the amount of change in the fluorescence on addition of acetylcholine (final concentration 1 μM) is 100% and that on addition of DMSO instead of a test compound is 0%, the activity (%) of the test compound was calculated, and the inflection point in the concentration-dependent curve of the test compound was calculated as IP values.

In the case of `CCC(F)(F)COc1nccc2c1C(=O)N(Cc1ccc(-c3ccn(C)n3)cc1F)C2` [Example 97, 4-(2,2-difluorobutoxy)-2-(2-fluoro-4-(1-methyl-1H-pyrazol-3-yl)benzyl)-1,2-dihydro-3H-pyrrolo[3,4-c]pyridin-3-one], the “activity (%) at 10 μM” value was 104% and the EC50 stood at 77 nM.
Taken in the same sequence, the figures for `Cc1nn(C)cc1-c1ccc(CN2Cc3ccnc(OCC(C)(F)F)c3C2=O)c(F)c1` [Example 108, 4-(2,2-difluoropropoxy)-2-(4-(1,3-dimethyl-1H-pyrazol-4-yl)-2-fluorobenzyl)-1,2-dihydro-3H-pyrrolo[3,4-c]pyridin-3-one] were 94% and 16 nM.
The corresponding values for `CC(F)(F)COc1nccc2c1C(=O)N(Cc1ccc(-c3cnn(C4CC4)c3)cc1)C2` [Example 17, 2-(4-(1-cyclopropyl-1H-pyrazol-4-yl)benzyl)-4-(2,2-difluoropropoxy)-1,2-dihydro-3H-pyrrolo[3,4-c]pyridin-3-one] are 99% and 95 nM.
Turning to `Cc1nn(C)cc1-c1ccc(CN2Cc3ccnc(OCC(F)(F)F)c3C2=O)c(F)c1` [Example 88, 2-(4-(1,3-dimethyl-1H-pyrazol-4-yl)-2-fluorobenzyl)-4-(2,2,2-trifluoroethoxy)-1,2-dihydro-3H-pyrrolo[3,4-c]pyridin-3-one], the “activity (%) at 10 μM” value was 101% and the EC50 is 74 nM.
Taken in the same sequence, the figures for `CCC(F)(F)COc1ncnc2c1C(=O)N(Cc1ccc(C(=O)NC)cc1)C2` [Example 10, 4-((4-(2,2-difluorobutoxy)-5-oxo-5,7-dihydro-6H-pyrrolo[3,4-d]pyrimidin-6-yl)methyl)-N-methylbenzamide] were 103% and 33 nM.
On to `Cn1cc(-c2ccc(CN3Cc4ncnc(OCC(C)(F)F)c4C3=O)cc2)cn1` [Example 78, 4-(2,2-difluoropropoxy)-6-(4-(1-methyl-1H-pyrazol-4-yl)benzyl)-6,7-dihydro-5H-pyrrolo[3,4-d]pyrimidin-5-one], for which the “activity (%) at 10 μM” value is listed as 95% and the EC50 was determined as 19 nM.
On to `CCn1cc(-c2ccc(CN3Cc4ccnc(OCC(C)(F)F)c4C3=O)cc2)cn1` [Example 84, 4-(2,2-difluoropropoxy)-2-(4-(1-ethyl-1H-pyrazol-4-yl)benzyl)-1,2-dihydro-3H-pyrrolo[3,4-c]pyridin-3-one], for which the “activity (%) at 10 μM” value was determined as 96% and the EC50 amounted to 72 nM.
The corresponding values for `Cc1nn(C)cc1-c1ccc(CN2Cc3ncnc(OCC(F)F)c3C2=O)c(F)c1` [Example 40, 4-(2,2-difluoroethoxy)-6-(4-(1,3-dimethyl-1H-pyrazol-4-yl)-2-fluorobenzyl)-6,7-dihydro-5H-pyrrolo[3,4-d]pyrimidin-5-one] are 96% and 9 nM.
The corresponding values for `CCn1cc(-c2ccc(CN3Cc4ccnc(OCC(F)(F)CC)c4C3=O)c(F)c2)cn1` [Example 60, 4-(2,2-difluorobutoxy)-2-(4-(1-ethyl-1H-pyrazol-4-yl)-2-fluorobenzyl)-1,2-dihydro-3H-pyrrolo[3,4-c]pyridin-3-one] are 94% and 7.4 nM.
In the case of `CCC(F)(F)COc1ncnc2c1C(=O)N(Cc1ccc(-c3cnn(C)c3)cc1)C2` [Example 75, 4-(2,2-difluorobutoxy)-6-(4-(1-methyl-1H-pyrazol-4-yl)benzyl)-6,7-dihydro-5H-pyrrolo[3,4-d]pyrimidin-5-one], the “activity (%) at 10 μM” value turned out to be 98% and the EC50 is 13 nM.
Taken in the same sequence, the figures for `Cc1nn(C)cc1-c1ccc(CN2Cc3ncnc(OCC(F)(F)F)c3C2=O)cc1` [Example 39, 6-(4-(1,3-dimethyl-1H-pyrazol-4-yl)benzyl)-4-(2,2,2-trifluoroethoxy)-6,7-dihydro-5H-pyrrolo[3,4-d]pyrimidin-5-one] were 93% and 40 nM.
Turning to `CCn1cc(-c2ccc(CN3Cc4ncnc(OCC(F)(F)CC)c4C3=O)s2)cn1` [Example 30, 4-(2,2-difluorobutoxy)-6-((5-(1-ethyl-1H-pyrazol-4-yl)-2-thienyl)methyl)-6,7-dihydro-5H-pyrrolo[3,4-d]pyrimidin-5-one], the “activity (%) at 10 μM” value was 103% and the EC50 was 96 nM.
`O=C1c2c(ccnc2OCC(F)F)CN1Cc1ccc(-c2cnn(CC(F)F)c2)cc1F` [Example 56, 4-(2,2-difluoroethoxy)-2-(4-(1-(2,2-difluoroethyl)-1H-pyrazol-4-yl)-2-fluorobenzyl)-1,2-dihydro-3H-pyrrolo[3,4-c]pyridin-3-one]: the “activity (%) at 10 μM” value was 102% and the EC50 came to 21 nM.
Taken in the same sequence, the figures for `CCn1cc(-c2ccc(CN3Cc4ncnc(OCC(F)(F)F)c4C3=O)cc2)cn1` [Example 37, 6-(4-(1-ethyl-1H-pyrazol-4-yl)benzyl)-4-(2,2,2-trifluoroethoxy)-6,7-dihydro-5H-pyrrolo[3,4-d]pyrimidin-5-one] were 98% and 46 nM.
The corresponding values for `O=C1c2c(ccnc2OCC(F)F)CN1Cc1ccc(-c2cnn(CC(F)(F)F)c2)cc1` [Example 65, 4-(2,2-difluoroethoxy)-2-(4-(1-(2,2,2-trifluoroethyl)-1H-pyrazol-4-yl)benzyl)-1,2-dihydro-3H-pyrrolo[3,4-c]pyridin-3-one] are 106% and 91 nM.
Taken in the same sequence, the figures for `CCn1cc(-c2ccc(CN3Cc4ncnc(OCC(C)(C)F)c4C3=O)c(F)c2)cn1` [Example 44, 6-(4-(1-ethyl-1H-pyrazol-4-yl)-2-fluorobenzyl)-4-(2-fluoro-2-methylpropoxy)-6,7-dihydro-5H-pyrrolo[3,4-d]pyrimidin-5-one] were 86% and 6.7 nM.
As to `CCn1cc(-c2ccc(CN3Cc4ncnc(OCC(F)(F)F)c4C3=O)c(F)c2)cn1` [Example 35, 6-(4-(1-ethyl-1H-pyrazol-4-yl)-2-fluorobenzyl)-4-(2,2,2-trifluoroethoxy)-6,7-dihydro-5H-pyrrolo[3,4-d]pyrimidin-5-one], the “activity (%) at 10 μM” value is 98% and the EC50 was 27 nM.
Taken in the same sequence, the figures for `Cn1cc(-c2ccc(CN3Cc4ncnc(OCC(F)(F)F)c4C3=O)cc2)nn1` [Example 104, 6-(4-(1-methyl-1H-1,2,3-triazol-4-yl)benzyl)-4-(2,2,2-trifluoroethoxy)-6,7-dihydro-5H-pyrrolo[3,4-d]pyrimidin-5-one] were 95% and 61 nM.
Taken in the same sequence, the figures for `CCC(F)(F)COc1ncnc2c1C(=O)N(Cc1ccc(-c3cn(C)nc3C)cc1F)C2` [Example 74, 4-(2,2-difluorobutoxy)-6-(4-(1,3-dimethyl-1H-pyrazol-4-yl)-2-fluorobenzyl)-6,7-dihydro-5H-pyrrolo[3,4-d]pyrimidin-5-one] were 101% and 8.7 nM.
Taken in the same sequence, the figures for `Cn1ccc(-c2ccc(CN3Cc4ncnc(OCC(F)(F)F)c4C3=O)c(F)c2)n1` [Example 9, 6-(2-fluoro-4-(1-methyl-1H-pyrazol-3-yl)benzyl)-4-(2,2,2-trifluoroethoxy)-6,7-dihydro-5H-pyrrolo[3,4-d]pyrimidin-5-one] were 102% and 77 nM.
